In the test the target is MCH receptor (MCH1) (Macaca fascicularis, UniProt A0A2K5VT41). The test can be described thus: Melanin concentrating hormone receptor binding assay (125I-Tyr MCH competition, membranes of transfected HEK293 cells). Also on record: species or system Cynomolgus macaque. The procedure: This Example illustrates a standard assay of melanin concentrating hormone receptor binding that may be used to determine the binding affinity of compounds for the MCH receptor.
Cynomolgus macaque hypothalamus MCH1 cDNA is prepared and cloned into PCDNA3.1 (INVITROGEN Corp., Carlsbad, Calif.), and HEK293 cells (American Type Culture Collection, Manassas, Va.) are stably transfected with the MCH1 expression vector as described in PCT International Application publication number WO/03/059289, which published on Jul. 24, 2003. The disclosure of WO 03/059289 at page 52 directed to the preparation and storage of the transfected HEK293 cells is hereby incorporated by reference.
At the time of assay, pellets are thawed by addition of wash buffer (25 mM Hepes with 1.0 mM CaCl2, 5.0 mM MgCl2, 120 mM NaCl, pH 7.4) and homogenized for 30 seconds using a BRINKMAN POLYTRON, setting 5. Cells are centrifuged for 10 minutes at 48,000×g. The supernatant is discarded and the pellet is resuspended in fresh wash buffer, and homogenized again. An aliquot of this membrane homogenate is used to determine protein concentration via the Bradford method (BIO-RAD Protein Assay Kit, #500-0001, BIO-RAD, Hercules, Calif.). By this measure, a 1-liter culture of cells typically yields 50-75 mg of total membrane protein. The homogenate is centrifuged as before and resuspended to a protein concentration of 333 μg/mL in binding buffer (Wash buffer+0.1% BSA and 1.0 μM final phosphoramidon) for an assay volume of 50 μg membrane protein/150 μl binding buffer. Phosphoramidon was from SIGMA BIOCHEMICALS, St. Louis, Mo. (cat# R-7385).
Competition binding assays are performed at room temperature in Falcon 96 well round bottom polypropylene plates. Each assay well contains 150 μL of MCH receptor-containing membranes described above, 50 μL ^125I-Tyr MCH, 50 μL binding buffer, and 2 μL test compound in DMSO. ^125I-Tyr MCH (specific activity=2200 Ci/mmol) is purchased from NEN (Boston, Mass.) and is diluted in binding buffer to provide a final assay concentration of 30 pM.
Non-specific binding is defined as the binding measured in the presence of 1 μM unlabeled MCH. MCH is purchased from BACHEM U.S.A., King of Prussia, Pa. (cat #H-1482). Assay wells used to determine MCH binding contain 150 μL of MCH receptor containing membranes, 50 μL ^125I-Tyr MCH, 25 μL binding buffer and 25 μL binding buffer.
Assay plates are incubated for 1 hour at room temperature. Membranes are harvested onto WALLAC™ glass fiber filters (PERKIN-ELMER, Gaithersburg, Md.) which were pre-soaked with 1.0% PEI (polyethyleneimine) for 2 hours prior to use. Filters are allowed to dry overnight, and then counted in a WALLAC 1205 BETA PLATE counter after addition of WALLAC BETA SCINT™ scintillation fluid.
For saturation binding, the concentration of ^125I-Tyr MCH is varied from 7 to 1,000 pM. Typically, 11 concentration points are collected per saturation binding curve. Equilibrium binding parameters are determined by fitting the allosteric Hill equation to the measured values with the aid of the computer program FitP™ (BIOSOFT, Ferguson, Mo.).

Setting [1] is: MCH receptor binding assay of Example 2, class symbol, read-out: Ki.

Read-outs that look alike come from different tables or passages of the source.

Sequence of MCH receptor (MCH1) (A0A2K5VT41 entry or part of it): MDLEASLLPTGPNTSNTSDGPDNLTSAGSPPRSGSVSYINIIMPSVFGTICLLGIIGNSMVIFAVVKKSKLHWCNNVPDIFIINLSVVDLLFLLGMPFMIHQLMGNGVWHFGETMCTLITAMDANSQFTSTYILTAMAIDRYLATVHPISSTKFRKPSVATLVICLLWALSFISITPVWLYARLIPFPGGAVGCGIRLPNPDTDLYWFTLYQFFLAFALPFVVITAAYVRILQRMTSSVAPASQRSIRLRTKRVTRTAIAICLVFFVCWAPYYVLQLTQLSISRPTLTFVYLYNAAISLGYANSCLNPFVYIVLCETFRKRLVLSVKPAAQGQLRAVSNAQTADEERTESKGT

The term Ki denotes a measure of affinity in units of concentration, obtained from inhibition or displacement. As for `COc1cc2c(cc1OC)CN(Cc1ccnc(Oc3ccc(C(C)(C)C)cc3)c1)CC2` [Compound 5, 2-[2-(4-tert-Butyl-phenoxy)-pyridin-4-ylmethyl]-6,7-dimethoxy-1,2,3,4-tetrahydroisoquinoline], the Ki is less than 1000 nM.

As for `CCOc1cc2c(cc1OC)CCN(Cc1cccc(Oc3ccc(C(C)(C)C)cc3)c1)C2` [Compound 31, 2-[3-(4-tert-Butyl-phenoxy)-benzyl]-7-ethoxy-6-methoxy-1,2,3,4-tetrahydroisoquinoline], the inhibitory constant (Ki) under setting [1] is less than 1000 nM.

Turning to `CC(C)(C)c1ccc(Oc2cccc(CN3CCc4cc5c(cc4C3)OCO5)c2)cc1` [Compound 52, 6-[3-(4-tert-Butyl-phenoxy)-benzyl]-5,6,7,8-tetrahydro-[1,3]dioxolo[4,5-g]isoquinoline], the inhibitory constant (Ki) under setting [1] is less than 1000 nM.

For the molecule `COc1cc2c(cc1OC)CN(Cc1cccc(Oc3ccc(Cl)cc3)c1)CC2` [Compound 21, 2-[3-(4-Chloro-phenoxy)-benzyl]-6,7-dimethoxy-1,2,3,4-tetrahydroisoquinoline], the inhibition constant Ki under setting [1] was less than 1000 nM.

On to `CCOc1cc2c(cc1OC)CN(Cc1cccc(Oc3ccc(C(C)(C)C)cc3)c1)CC2` [Compound 29, 2-[3-(4-tert-Butyl-phenoxy)-benzyl]-6-ethoxy-7-methoxy-1,2,3,4-tetrahydroisoquinoline], for which, under setting [1], the inhibition constant Ki was less than 1000 nM.

With `COc1cc2c(cc1OC)CN(Cc1cccc(Oc3ccc(C(C)(C)C)cc3)c1)CC2` [Compound 1, 2-[3-(4-tert-Butyl-phenoxy)-benzyl]-6,7-dimethoxy-1,2,3,4-tetrahydroisoquinoline], the inhibitory constant (Ki) is less than 1000 nM.

`COc1cc2c(cc1OC)CN(Cc1cccc(Oc3ccc(C)cc3)c1)CC2` [Compound 3, 6,7-dimethoxy-2-(3-p-tolyloxy-benzyl)-1,2,3,4-tetrahydroisoquinoline] showed a Ki of less than 1000 nM.

`COc1cc2c(cc1OC)CN(Cc1cccc(Oc3ccc(C(C)C)cc3)c1)CC2` [Compound 23, 2-[3-(4-Isopropyl-phenoxy)-benzyl]-6,7-dimethoxy-1,2,3,4-tetrahydroisoquinoline]: under setting [1], the Ki was less than 1000 nM.

With `CCOc1cc2c(cc1OC)CCN(Cc1ccnc(Oc3ccc(C(C)C)cc3)c1)C2` [Compound 53, 7-Ethoxy-2-[2-(4-isopropyl-phenoxy)-pyridin-4-ylmethyl]-6-methoxy-1,2,3,4-tetrahydroisoquinoline], the Ki under setting [1] was less than 1000 nM.

Turning to `COc1cc2c(cc1OC)CN(Cc1cccc(Oc3ccccc3)c1)CC2` [Compound 43, 6,7-Dimethoxy-2-(3-phenoxy-benzyl)-1,2,3,4-tetrahydroisoquinoline], the inhibitory constant (Ki) under setting [1] was less than 1000 nM.

With `COc1cc2c(cc1OC)CN(Cc1cccc(Cc3ccccc3)c1)CC2` [Compound 10, 2-(3-Benzyl-benzyl)-6,7-dimethoxy-1,2,3,4-tetrahydroisoquinoline], the inhibitory constant (Ki) under setting [1] was less than 1000 nM.

`COc1cc2c(cc1OC)CN(Cc1cccc(Oc3ccc(C(F)(F)F)cc3)c1)CC2` [Compound 50, 6,7-Dimethoxy-2-[3-(4-trifluoromethyl-phenoxy)-benzyl]-1,2,3,4-tetrahydroisoquinoline]: the inhibition constant Ki under setting [1] is less than 1000 nM.

For the molecule `COc1cc2c(cc1OC)CN(Cc1cccc(Oc3ccc(C(C)(C)C)cc3)n1)CC2` [Compound 34, 2-[6-(4-tert-Butyl-phenoxy)-pyridin-2-ylmethyl]-6,7-dimethoxy-1,2,3,4-tetrahydroisoquinoline], the inhibition constant (Ki) under setting [1] is less than 1000 nM.

Turning to `CCOc1ccc(Oc2cccc(CN3CCc4cc(OC)c(OC)cc4C3)c2)cc1` [Compound 22, 2-[3-(4-Ethoxy-phenoxy)-benzyl]-6,7-dimethoxy-1,2,3,4-tetrahydroisoquinoline], the Ki under setting [1] is less than 1000 nM.

In the case of `COc1cc2c(cc1OC)CN(Cc1ccnc(Oc3ccc(C(C)C)cc3)c1)CC2` [Compound 19, 2-[2-(4-Isopropyl-phenoxy)-pyridin-4-ylmethyl]-6,7-dimethoxy-1,2,3,4-tetrahydroisoquinoline], the Ki under setting [1] is less than 1000 nM.

Consider `COc1cc2c(cc1OC)CN(Cc1cccc(Oc3ccc(C#N)cc3)c1)CC2` [Compound 42, 4-[3-(6,7-Dimethoxy-3,4-dihydro-1H-isoquinolin-2-ylmethyl)-phenoxy]-benzonitrile], for which the Ki under setting [1] is less than 1000 nM.

In the case of `CCOc1cc2c(cc1OCC)CN(Cc1cccc(Oc3ccc(C(C)(C)C)cc3)c1)CC2` [Compound 26, 2-[3-(4-tert-Butyl-phenoxy)-benzyl]-6,7-diethoxy-1,2,3,4-tetrahydroisoquinoline], under setting [1], the Ki was less than 1000 nM.

For `COc1ccc(Oc2cccc(CN3CCc4cc(OC)c(OC)cc4C3)c2)cc1` [Compound 47, 6,7-Dimethoxy-2-[3-(4-methoxy-phenoxy)-benzyl]-1,2,3,4-tetrahydroisoquinoline], under setting [1], the Ki is less than 1000 nM.

`COc1cc2c(cc1OC)CN(Cc1cccc(Oc3ccc(OC(F)(F)F)cc3)c1)CC2` [Compound 49, 6,7-Dimethoxy-2-[3-(4-trifluoromethoxy-phenoxy)-benzyl]-1,2,3,4-tetrahydroisoquinoline]: the Ki under setting [1] was less than 1000 nM.

The values are drawn from patent US20080161344A1, “Melanin Concentrating Hormone Receptor Ligands: Substituted Tetrahydroisoquinoline Analogues” (priority 2004, published 2008).
